Results: patent publication US5922717A, “Piperazine derivatives, medicaments comprising these compounds, their use and processes for their preparation” (priority 1994, dated 1999)
Structures can show the parent of a compound that is named as a salt.

Assays:
human platelets = test: Inhibition of the binding of 3H-BIBU 52 to human platelets (fibrinogen binding test); settings: 3H-BIBU 52 5 nM, human platelets in plasma, room temperature, 20 minutes
Experimental: 1. Inhibition of the Binding of ^3 H-BIBU 52 to Human Platelets:
A suspension of human platelets in plasma is incubated with ^3 H-BIBU 52 [=(3S,5S)-5-[(4'-amidino-4-biphenylyl)-oxymethyl]-3-[(carboxyl)methyl]-2-pyrrolidinone[3-^3 H-4-biphenylyl]], which replaces the ligand ^125 I-fibrinogen known from the literature, (see DE-A-4,214-245) and varius concentrations of the substance to be tested. The free and bound ligand are separated by centrigation and determined quantitatively by scintillation counting. The inhibition of ^3 H-BIBU 52 binding by the test substance is determined from the measurement values.
For this, donor blood is withdrawn form an anticubital vein and anticoagulated with trisodium citrate (final concentration 13 mM). The blood is centriged at 170×g for 10 minutes and the supernatant platelet-rich plasma (PRP) is removed. The residual blood is centriged off under severe conditions once more to isolate the plasma. The PRP is diluted 1:10 with autologous plasma. 750 μl are incubated with 50 μl of physiological saline solution, 100 μl of test substance solution, 50 μl of 14C-sucrose (3,700 Bq) and 50 μl of ^3 H-BIBU 52 (final centration: 5 nM) at room temperature for 20 minutes. To measure the non-specific binding, 100 μl of BIBU 52 (final concentration: […]) are employed instead of the test substance. The samples are centrifuged at 10,000×g for 20 seconds and the supernatant is removed. 100 μl of this are measured for determination of the free ligand. The pellet is dissolved in 500 μl of 0.2N NaOH, […] of scintillator and 25 μl of 5N HCl are added to 450 μl and the sample is measured. The residual plasma which still remains in the pellet is determined from the ^14 C content and the bound ligand is determined from the ^3 H measurement. After subtraction of the non-specific binding, the pellet activity is plotted against the concentration f the test substance and the concentration for 50% inhibition of binding is determined.

Platelet aggregation = test: Inhibition of collagen-induced platelet aggregation (method of Born and Cross) in platelet-rich plasma; assay type: cell-based, human (healthy test persons); settings: 10 minutes at 37° C., 50% change in optical density
Experimental: 2. Antithrombotic Action: Method Platelet aggregation is measured in platelet-rich plasma of healthy test persons by the method of Born and Cross (J. Physiol. 170, 397 (1964)). To inhibit coagulation, 3.14% sodium citrate is added to the blood in a volume ratio of 1:10. Collagen-induced aggregation The course of the decrease in the optical density of the platelet suspension after addition of the substance which induces aggregation is measured and recorded photometrically. The rate of aggregation is concluded from the angle of inclination of the density curve. The point on the curve at which the highest light transmission exists is used to calculate the "optical density". The amount of collagen is as low as possible, but is enough to result in a reaction curve which proceeds irreversibly. Commercially available collagen from Hormonchemie, Munich is used. Before addition of the collagen, the plasma is incubated with the substance for in each case 10 minutes at 37° C. An EC50 which is based on a 50% change in "optical density" in the sense of inhibition of aggregation is determined graphically from the measurement figures obtained.

[1] = set-up: species or system mice; settings: mouse, in vivo, iv, 200 mg/kg

| Molecule | IC50 (human platelets) | EC50 (Platelet aggregation; Homo sapiens, 10 min) | toxic side effects [1] | EC50 (Platelet aggregation) |
| --- | --- | --- | --- | --- |
| CC(C)OC(=O)COc1ccc(NC(=O)N2CCN(C3CCNCC3)CC2)cc1 [4(6), Isopropyl [4-[[4-(4-piperidinyl)-piperazin-1-yl]carbonylamino]-phenoxy]acetate dihydrochloride] | 13000 nM | 280 nM |  |  |
| CCOC(=O)COc1ccc(NC(=O)N2CCN(C3CCNCC3)CC2)cc1 [4(13), Ethyl [4-[[4-(4-piperidinyl)-piperazin-1-yl]carbonylamino]-phenoxy]acetate dihydrochloride] | 310 nM | 130 nM |  |  |
| O=C(O)CC[C@H]1CC[C@H](NC(=O)N2CCN(C3CCNCC3)CC2)CC1 [Example 1(1), [3-[4-trans-[4-(4-Piperidinyl)-piperazin-1-yl]carbonylamino]cyclohexyl]propionic acid dihydrochloride] | 76 nM | 95 nM |  |  |
| O=C(O)CCCC1CCN(C(=O)N2CCN(C3CCNCC3)CC2)CC1 [Example 1(13), N-[[4-(4-Piperidinyl)-piperazin-1-yl]-carbonyl]-4-(4-piperidinyl)-butyric acid dihydrochloride] | 270 nM | 320 nM |  |  |
| O=C(O)COc1ccc(C(=O)CN2CCN(C3CCNCC3)CC2)cc1 [Example 1(19), [4-[[4-(4-Piperidinyl)-piperazin-1-yl]acetyl]phenoxyl-acetic acid trihydrochloride] | 200 nM | 390 nM |  |  |
| O=C(O)COc1ccc(NC(=O)N2CCN(C3CCNCC3)CC2)cc1 [Example 1(23), [4-[[4-(4-Piperidinyl)-piperazin-1-yl]carbonylaminolphenoxyl-acetic acid dihydrochloride] | 67 nM | 98 nM | no toxic side effects were observed |  |
| O=C(O)CCOC1CCN(C(=O)N2CCN(C3CCNCC3)CC2)CC1 [Example 1(30), N-[[4-(4-Piperidinyl)-piperazin-1-yl]carbonyl]-3-(piperidin-4-yloxy)-propionic acid dihydrochloride] | 210 nM | 640 nM |  |  |
| O=C(CCN1CCN(C2CCNCC2)CC1)N[C@H]1CC[C@H](C(=O)O)CC1 [Example 1, [4-trans-[3-[4-(4-Piperidinyl)-piperazin-1-yl]propionyl]-amino]cyclohexanecarboxylic acid dihydrochloride] | 510 nM | 240 nM |  |  |
| COC(=O)COc1ccc(C(=O)CN2CCN(C3CCNCC3)CC2)cc1 [Example 2(11), Methyl [4-[[4-(4-piperidinyl)-piperazin-1-yl]acetyl]phenoxyl-acetatetrihydrochloride] | 33000 nM | 420 nM |  |  |
| CCOC(=O)CCOC1CCN(C(=O)N2CCN(C3CCNCC3)CC2)CC1 [Example 2(15), Ethyl N-[[4-(4-piperidinyl)-piperazin-1-yl]-carbonyl]-3-(piperidin-4-yloxy)-propionate dihydrochloride] | 38000 nM | > 10000 nM |  |  |
| COC(=O)COc1ccc(NC(=O)N2CCN(C3CCNCC3)CC2)cc1 [Example 3(7), Methyl [4-[[4-(4-piperidinyl)-piperazin-1-yl]carbonylamino]phenoxy]acetate dihydrochloride] | 270 nM | 110 nM |  |  |
| CC(C)(C)OC(=O)COc1ccc(NC(=O)N2CCN(C3CCNCC3)CC2)cc1 [Example 3(11), tert-Butyl [4-[[4-(4-piperidinyl)-piperazin-1-yl]carbonylamino]-phenoxy]acetate dihydrochloride] | 630 nM | 980 nM |  |  |
| CC(C)COC(=O)COc1ccc(NC(=O)N2CCN(C3CCNCC3)CC2)cc1 [Example 4(7), Isobutyl [4-[[4-(4-piperidinyl)-piperazin-1-yl]carbonylamino]-phenoxy]acetate dihydrochloride] | 18000 nM | 100 nM |  |  |
| CC(C)(C)COC(=O)COc1ccc(NC(=O)N2CCN(C3CCNCC3)CC2)cc1 [Example 4(8), Neopentyl [4-[[4-(4-piperidinyl)-piperazin-1-yl]carbonylamino]-phenoxy]acetate dihydrochloride] | 170 nM | 120 nM |  |  |
| O=C(COc1ccc(NC(=O)N2CCN(C3CCNCC3)CC2)cc1)OC1CCCC1 [Example 4(9), Cyclopentyl [4-[[4-(4-piperidinyl)-piperazin-1-yl]carbonylamino]-phenoxy]acetate dihydrochloride] | 4700 nM | 160 nM |  |  |
| O=C(COc1ccc(NC(=O)N2CCN(C3CCNCC3)CC2)cc1)OC1CCCCCC1 [Example 4(10), Cycloheptyl [4-[[4-(4-piperidinyl)-piperazin-1-yl]carbonylamino]-phenoxy]acetate dihydrochloride] | 590 nM | 91 nM |  |  |
| CCCCOC(=O)COc1ccc(NC(=O)N2CCN(C3CCNCC3)CC2)cc1 [Example 4(11), Butyl [4-[[4-(4-piperidinyl)-piperazin-1-yl]carbonylamino]-phenoxy]acetate dihydrochloride] | 19000 nM | 110 nM |  |  |
| O=C(COc1ccc(NC(=O)N2CCN(C3CCNCC3)CC2)cc1)OC1CCCCC1 [Example 4(12), Cyclohexyl [4-[[4-(4-piperidinyl)-piperazin-1-yl]carbonylamino]-phenoxy]acetate dihydrochloride] |  | 290 nM |  |  |
| O=C(CC[C@H]1CC[C@H](NC(=O)N2CCN(C3CCNCC3)CC2)CC1)OC1CCCCC1 [Example 4, Cyclohexyl 3-[4-trans-[[4-(4-piperidinyl)-piperazin-1-yl]carbonylamino]-cyclohexylpropionatedihydrochloride] | 270 nM | 360 nM |  |  |
| O=C(O)CN1CCC(OCC(=O)N2CCN(C3CCNCC3)CC2)CC1 [Example 22(8), [4-[[[4-(piperidin-4-yl)-piperazin-1-yl]-carbonyl]-methyloxy]-piperidin-1-yl]-acetic acid] | 27 nM | 100 nM |  |  |
| O=C(O)CN1CCC(CCC(=O)N2CCN(C3CCNCC3)CC2)CC1 [Example 24(1), [4-[2-[[4-(Piperidin-4-yl)-piperazin-1-yl]-carbonyl]-ethyl]-piperidin-1-yl]-acetic acid trihydrochloride] | 12 nM | 94 nM |  |  |
| N-[4-[[4-(4-Piperidinyl)-piperazin-1-yl]carbonyl]piperi-dinyl]-β-alanine trihydrochloride [Example 1(5)] | 78 nM |  |  | 250 nM |
